Test results reported in PMC6934184, “Selective DNA-PKcs inhibition extends the therapeutic index of localized radiotherapy and chemotherapy” (The Journal of Clinical Investigation, 2019).

Biological target: T1, FLT4 (VEGFR3) (Homo sapiens, UniProt P35916)
T1 construct: purchased Thermo Fisher Scientific (Life Technologies) SelectScreen
Experiment: SelectScreen Z'LYTE
Type: biochemical
Method in brief: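 SelectScreen broad panel; activity (Z'LYTE, Adapta) plus binding formats. ATP: Km app for CSF1R Z'LYTE; 10 for CAMK1 Adapta. Readout = % per kinase.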

T1 sequence (P35916 25-1363): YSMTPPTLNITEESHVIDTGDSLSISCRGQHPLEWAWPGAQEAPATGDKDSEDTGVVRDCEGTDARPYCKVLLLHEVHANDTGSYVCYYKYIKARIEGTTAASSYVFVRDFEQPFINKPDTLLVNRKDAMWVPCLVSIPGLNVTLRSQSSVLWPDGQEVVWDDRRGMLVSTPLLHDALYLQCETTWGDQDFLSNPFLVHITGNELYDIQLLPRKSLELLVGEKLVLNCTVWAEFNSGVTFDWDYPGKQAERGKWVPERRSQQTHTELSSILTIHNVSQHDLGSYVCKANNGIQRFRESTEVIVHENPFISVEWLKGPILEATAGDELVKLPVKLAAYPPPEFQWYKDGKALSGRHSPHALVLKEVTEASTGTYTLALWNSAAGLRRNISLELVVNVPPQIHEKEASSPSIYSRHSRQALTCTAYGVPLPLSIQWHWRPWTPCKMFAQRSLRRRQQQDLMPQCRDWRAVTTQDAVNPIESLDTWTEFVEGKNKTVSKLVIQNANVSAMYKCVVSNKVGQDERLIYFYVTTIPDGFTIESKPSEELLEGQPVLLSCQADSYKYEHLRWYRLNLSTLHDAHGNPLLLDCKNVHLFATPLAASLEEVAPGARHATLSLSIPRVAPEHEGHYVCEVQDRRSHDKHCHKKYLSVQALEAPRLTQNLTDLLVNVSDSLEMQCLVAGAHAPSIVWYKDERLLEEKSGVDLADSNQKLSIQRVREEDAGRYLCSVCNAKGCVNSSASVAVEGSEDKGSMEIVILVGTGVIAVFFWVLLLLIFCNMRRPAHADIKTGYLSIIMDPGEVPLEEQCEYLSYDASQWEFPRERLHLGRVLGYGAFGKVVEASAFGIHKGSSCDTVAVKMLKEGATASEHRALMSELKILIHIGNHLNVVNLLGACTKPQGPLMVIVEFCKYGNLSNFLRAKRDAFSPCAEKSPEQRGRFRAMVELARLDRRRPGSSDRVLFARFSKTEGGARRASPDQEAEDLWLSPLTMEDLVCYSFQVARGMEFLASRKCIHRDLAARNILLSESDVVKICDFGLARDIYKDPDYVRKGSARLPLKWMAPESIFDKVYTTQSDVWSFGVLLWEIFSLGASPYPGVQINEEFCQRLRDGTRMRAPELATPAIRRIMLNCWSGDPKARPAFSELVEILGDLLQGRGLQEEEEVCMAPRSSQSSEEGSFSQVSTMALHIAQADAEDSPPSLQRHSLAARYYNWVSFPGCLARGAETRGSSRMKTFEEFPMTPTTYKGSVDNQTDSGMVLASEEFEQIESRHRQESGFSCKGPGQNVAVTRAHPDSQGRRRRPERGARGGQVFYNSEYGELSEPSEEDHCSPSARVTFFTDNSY

**Q.** `CN(C(=O)CN1CCOCC1)c1ccc2sc3c(-c4cccc5c(=O)cc(N6CC7CCC(C6)O7)oc45)cccc3c2c1` [NU5455] was tested. Which inhibition at 1 µM did it give?
**A.** Its inhibition at 1 µM is 3.5%.
